Measured values as given in ChEMBL document CHEMBL1275593 (2010).
Values after ≈ are worked out from the molar mass of the structure shown.

Experiments:
[1] = test system: Bacillus anthracis; assay: microbe, parasite or virus in culture; details: BA103
[2] = test system: Bacillus anthracis; assay: microbe, parasite or virus in culture; details: BA104

Question: What does the source list for O=C(O)c1cn(C2CC2)c2cc(N3CCNCC3)c(F)cc2c1=O [CIPROFLOXACIN]?
Answer: MIC [1]: 0.064 µg/mL (≈ 0.193 µM); MIC [2]: 0.064 µg/mL (≈ 0.193 µM)
